Like-named read-outs stand apart in the source and are kept apart here. Numbered stars: 1 amine (or outer) side, 2 acyl side, 3 side chain; on linkers, the order of the positions; unused ones are H or OH. Square brackets hold non-standard residues; d marks the D form. Ends that are not written are not given here. Peptide text beside a SMILES is read from it. * marks the point of attachment. Quinoline(6-carbonyl) = O=C(c1ccc2ncccc2c1)*; X11 = O=C(c1cn(S(=O)(=O)c2ccccc2)c2ccccc12)*; X6 = Cc1c(C(=O)*)cc(-c2ccccc2)n1-c1ccccc1; NMe4Abz = CN(c1ccc(C(=O)[*:2])cc1)[*:1]; X3 = Cc1ccc(-c2cn(CC(=O)*)c(=O)cn2)cc1; pT = C[C@@H](OP(=O)(O)O)[C@H](N)C(=O)O; X14 = COc1cccc(-c2cc(C(=O)*)[nH]n2)c1; Benzoyl(4-OMe) = COc1ccc(C(=O)*)cc1; X7 = Cc1ccc2c(c1)N(CC(=O)*)C(=O)CO2; Benzoyl(4-Et) = CCc1ccc(C(=O)*)cc1; 1Naphthoyl = O=C(c1cccc2ccccc12)*; X2 = Cc1nc(-c2ccc(C(=O)*)cc2)no1; X10 = COc1cc(C(=O)*)cc2c1OCCO2; X15 = COc1ccc(C(=O)*)c2ccccc12; X8 = Cc1cc2c(SCC(=O)*)ncnc2s1; X1 = CCCCc1ccc(C(=O)*)cc1; X17 = CCCc1ccc(C(=O)*)cc1; X5 = CCCNc1ccc(C(=O)*)cc1; X9 = CCOc1ccc(C(=O)*)cc1; X4 = CSc1ccc(C(=O)*)cc1
Key:
[1] = target: PLK1 PBD protein (residues 367-603) (Homo sapiens (Human), UniProt P53350); assay: Competitive fluorescence polarization (FP) binding assay, PLK1 PBD
Sequence of PLK1 PBD protein (residues 367-603) (P53350 367-603): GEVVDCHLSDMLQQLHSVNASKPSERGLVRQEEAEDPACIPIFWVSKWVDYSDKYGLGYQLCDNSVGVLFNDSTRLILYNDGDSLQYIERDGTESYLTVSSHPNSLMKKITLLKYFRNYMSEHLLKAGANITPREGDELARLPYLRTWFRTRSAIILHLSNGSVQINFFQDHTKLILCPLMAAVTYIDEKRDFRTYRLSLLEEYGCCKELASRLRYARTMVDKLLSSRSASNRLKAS

[2] = target: PLK1 (Homo sapiens (Human), UniProt P53350); conditions: previously identified minimized PBD binding sequences; cited from earlier work
Sequence of PLK1 (P53350 326-603): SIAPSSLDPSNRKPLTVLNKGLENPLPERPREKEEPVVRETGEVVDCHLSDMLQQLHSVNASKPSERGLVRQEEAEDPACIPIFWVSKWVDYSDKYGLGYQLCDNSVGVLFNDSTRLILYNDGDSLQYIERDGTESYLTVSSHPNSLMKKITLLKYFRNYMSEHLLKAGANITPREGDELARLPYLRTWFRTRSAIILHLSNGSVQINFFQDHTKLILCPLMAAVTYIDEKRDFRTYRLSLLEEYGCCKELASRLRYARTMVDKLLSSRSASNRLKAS

[3] = Table 2, FP assay, read-out: IC50

Row | IC50 [1, 3] [µM] | Compound | IC50 [1] [µM] | further results
1 |  | COc1ccc(C(=O)N[C@@H](CO)C(=O)N[C@H](C(=O)N2CCC[C@H]2C(=O)N[C@@H](CC(N)=O)C(=O)NCC(=O)N[C@@H](CC(C)C)C(=O)O)[C@@H](C)OP(=O)(O)O)c2ccccc12 [compound 5756, 2G1-S[pT]PNGL] (X15-S[pT]PNGL-OH) | 99 | 
2 | 18.5 | CSc1ccc(C(=O)N[C@@H](CO)C(=O)N[C@H](C(=O)N2CCC[C@H]2C(=O)N[C@@H](CC(N)=O)C(=O)NCC(=O)N[C@@H](CC(C)C)C(=O)O)[C@@H](C)OP(=O)(O)O)cc1 [compound 5791] (X4-S[pT]PNGL-OH) |  | 
3 |  | CC(C)C[C@H](NC(=O)CNC(=O)[C@H](CC(N)=O)NC(=O)[C@@H]1CCCN1C(=O)[C@@H](NC(=O)[C@H](CO)NC(=O)c1cccc2ccccc12)[C@@H](C)OP(=O)(O)O)C(=O)O [compound 5753] (1Naphthoyl-S[pT]PNGL-OH) | 104 | 
4 |  | Cc1c(C(=O)N[C@@H](CO)C(=O)N[C@H](C(=O)N2CCC[C@H]2C(=O)N[C@@H](CC(N)=O)C(=O)NCC(=O)N[C@@H](CC(C)C)C(=O)O)[C@@H](C)OP(=O)(O)O)cc(-c2ccccc2)n1-c1ccccc1 [compound 5599] (X6-S[pT]PNGL-OH) | 600 | 
5 | 125 | COc1ccc(C(=O)N[C@@H](CO)C(=O)N[C@H](C(=O)N2CCC[C@H]2C(=O)N[C@@H](CC(N)=O)C(=O)NCC(=O)N[C@@H](CC(C)C)C(=O)O)[C@@H](C)OP(=O)(O)O)cc1 [compound 5754] ({Benzoyl(4-OMe)}-S[pT]PNGL-OH) |  | 
6 | 31.2 | CNc1ccc(C(=O)N[C@@H](CO)C(=O)N[C@H](C(=O)N2CCC[C@H]2C(=O)N[C@@H](CC(N)=O)C(=O)NCC(=O)N[C@@H](CC(C)C)C(=O)O)[C@@H](C)OP(=O)(O)O)cc1 [compound 5792] (NMe4Abz-S[pT]PNGL-OH) |  | 
7 |  | Cc1ccc(-c2cn(CC(=O)N[C@@H](CO)C(=O)N[C@H](C(=O)N3CCC[C@H]3C(=O)N[C@@H](CC(N)=O)C(=O)NCC(=O)N[C@@H](CC(C)C)C(=O)O)[C@@H](C)OP(=O)(O)O)c(=O)cn2)cc1 [compound 5603, 1G3-S[pT]PNGL] (X3-S[pT]PNGL-OH) | 250 | 
8 |  | CC[C@H](C)[C@H](NC(=O)[C@H](C)NC(=O)[C@@H](NC(=O)[C@H](CO)NC(=O)[C@H](Cc1c[nH]cn1)NC(=O)[C@@H](N)CC(C)C)[C@@H](C)OP(=O)(O)O)C(=O)O [compound 5649, LHS[pT]AI] (H-LHS[pT]AI-OH) |  | Kd [2]: 0.25 µM
9 |  | Cc1ccc2c(c1)N(CC(=O)N[C@@H](CO)C(=O)N[C@H](C(=O)N1CCC[C@H]1C(=O)N[C@@H](CC(N)=O)C(=O)NCC(=O)N[C@@H](CC(C)C)C(=O)O)[C@@H](C)OP(=O)(O)O)C(=O)CO2 [compound 5594, 1G1-S[pT]PNGL] (X7-S[pT]PNGL-OH) | 350 | 
10 | 16.5 | CCc1ccc(C(=O)N[C@@H](CO)C(=O)N[C@H](C(=O)N2CCC[C@H]2C(=O)N[C@@H](CC(N)=O)C(=O)NCC(=O)N[C@@H](CC(C)C)C(=O)O)[C@@H](C)OP(=O)(O)O)cc1 [compound 5788, 3G1-S[pT]PNGL (4-ethylbenzoic acid)] ({Benzoyl(4-Et)}-S[pT]PNGL-OH) |  | 
11 |  | Cc1nc(-c2ccc(C(=O)N[C@@H](CO)C(=O)N[C@H](C(=O)N3CCC[C@H]3C(=O)N[C@@H](CC(N)=O)C(=O)NCC(=O)N[C@@H](CC(C)C)C(=O)O)[C@@H](C)OP(=O)(O)O)cc2)no1 [compound 5598, 1G2-S[pT]PNGL] (X2-S[pT]PNGL-OH) | 320 | 
12 |  | Ac-PLHSEA [compound 5744, Ac-PLHSEA] |  | PLK1 PBD IC50 ([1]; Table 1): weakly but detectably bound
13 |  | CC(C)C[C@H](NC(=O)CNC(=O)[C@H](CC(N)=O)NC(=O)[C@@H]1CCCN1C(=O)[C@@H](NC(=O)[C@H](CO)NC(=O)c1ccc2ncccc2c1)[C@@H](C)OP(=O)(O)O)C(=O)O [compound 5601] ({Quinoline(6-carbonyl)}-S[pT]PNGL-OH) | 400 | 
14 | 8.6 | CCCCc1ccc(C(=O)N[C@@H](CO)C(=O)N[C@H](C(=O)N2CCC[C@H]2C(=O)N[C@@H](CC(N)=O)C(=O)NCC(=O)N[C@@H](CC(C)C)C(=O)O)[C@@H](C)OP(=O)(O)O)cc1 [compound 5827, 3G2-S[pT]PNGL (4-butylbenzoic acid)] (X1-S[pT]PNGL-OH) |  | 
15 |  | CC(C)C[C@H](NC(=O)CNC(=O)[C@H](CC(N)=O)NC(=O)[C@@H]1CCCN1C(=O)[C@@H](NC(=O)[C@@H](N)CO)[C@@H](C)OP(=O)(O)O)C(=O)O [Sample No. 5714, S[pT]PNGL] (H-S[pT]PNGL-OH) |  | PLK1 PBD IC50 ([1]; Table 1): no detectable binding
16 | 10.8 | CCCc1ccc(C(=O)N[C@@H](CO)C(=O)N[C@H](C(=O)N2CCC[C@H]2C(=O)N[C@@H](CC(N)=O)C(=O)NCC(=O)N[C@@H](CC(C)C)C(=O)O)[C@@H](C)OP(=O)(O)O)cc1 [compound 5826] (X17-S[pT]PNGL-OH) |  | 
17 |  | COc1cc(C(=O)N[C@@H](CO)C(=O)N[C@H](C(=O)N2CCC[C@H]2C(=O)N[C@@H](CC(N)=O)C(=O)NCC(=O)N[C@@H](CC(C)C)C(=O)O)[C@@H](C)OP(=O)(O)O)cc2c1OCCO2 [compound 5604] (X10-S[pT]PNGL-OH) | 300 | 
18 | 16.5 | CCCNc1ccc(C(=O)N[C@@H](CO)C(=O)N[C@H](C(=O)N2CCC[C@H]2C(=O)N[C@@H](CC(N)=O)C(=O)NCC(=O)N[C@@H](CC(C)C)C(=O)O)[C@@H](C)OP(=O)(O)O)cc1 [compound 5830] (X5-S[pT]PNGL-OH) |  | 
19 |  | CC[C@H](C)[C@H](NC(=O)[C@H](C)NC(=O)[C@@H](NC(=O)[C@H](CO)NC(=O)[C@H](Cc1c[nH]cn1)NC(=O)[C@H](CC(C)C)NC(C)=O)[C@@H](C)OP(=O)(O)O)C(=O)O [Sample No. 5781, Ac-LHS[pT]AI, reference compound] (Ac-LHS[pT]AI-OH) |  | IC50 ([1]; Table 1, read-out: PLK1 PBD IC50): 5 µM
20 |  | COc1cccc(-c2cc(C(=O)N[C@@H](CO)C(=O)N[C@H](C(=O)N3CCC[C@H]3C(=O)N[C@@H](CC(N)=O)C(=O)NCC(=O)N[C@@H](CC(C)C)C(=O)O)[C@@H](C)OP(=O)(O)O)[nH]n2)c1 [compound 5593] (X14-S[pT]PNGL-OH) | 380 | 
21 |  | CC(C)C[C@H](NC(=O)CNC(=O)[C@H](CC(N)=O)NC(=O)[C@@H]1CCCN1C(=O)[C@@H](NC(=O)[C@H](CO)NC(=O)c1cn(S(=O)(=O)c2ccccc2)c2ccccc12)[C@@H](C)OP(=O)(O)O)C(=O)O [compound 5591] (X11-S[pT]PNGL-OH) | 375 | 
22 |  | Cc1cc2c(SCC(=O)N[C@@H](CO)C(=O)N[C@H](C(=O)N3CCC[C@H]3C(=O)N[C@@H](CC(N)=O)C(=O)NCC(=O)N[C@@H](CC(C)C)C(=O)O)[C@@H](C)OP(=O)(O)O)ncnc2s1 [compound 5595] (X8-S[pT]PNGL-OH) | 475 | 
23 | 64.7 | CCOc1ccc(C(=O)N[C@@H](CO)C(=O)N[C@H](C(=O)N2CCC[C@H]2C(=O)N[C@@H](CC(N)=O)C(=O)NCC(=O)N[C@@H](CC(C)C)C(=O)O)[C@@H](C)OP(=O)(O)O)cc1 [compound 5786] (X9-S[pT]PNGL-OH) |  | 
